{"source": "the NIST ThermoML archive (doi:10.1021/je501054c)", "test": "mn = molality of the nth substance listed, in mol/kg", "details": "100 kPa, Liquid; for viscosity: Capillary tube (Ostwald / Ubbelohde) method; for mass density: Vibrating tube method", "note": "“And” between values parts separate entries of the source, which are not always exact repeats. Identical values can stand only once. Numbers after ± are expanded uncertainties."}
{"smiles": "C(=NCCN=Cc1ccccn1)c1ccccn1", "note": "[N,N'-bis(2-pyridinylmethylene)-1,2-ethanediamine] + CC#N", "values": [{"measurement": "viscosity", "setting": "298.15 K, m1 = 0.0396", "value": "0.3511 ± 0.0074", "unit": "mPa·s"}, {"measurement": "viscosity", "setting": "298.15 K, m1 = 0.0397", "value": "0.359 ± 0.0076", "unit": "mPa·s"}, {"measurement": "viscosity", "setting": "298.15 K, m1 = 0.0412", "value": "0.352 ± 0.0075 mPa·s and 0.368 ± 0.0078 mPa·s"}, {"measurement": "viscosity", "setting": "298.15 K, m1 = 0.0707", "value": "0.372 ± 0.0079", "unit": "mPa·s"}, {"measurement": "viscosity", "setting": "298.15 K, m1 = 0.076", "value": "0.3695 ± 0.0078", "unit": "mPa·s"}, {"measurement": "viscosity", "setting": "298.15 K, m1 = 0.0794", "value": "0.367 ± 0.0078", "unit": "mPa·s"}, {"measurement": "viscosity", "setting": "298.15 K, m1 = 0.085", "value": "0.357 ± 0.0076", "unit": "mPa·s"}, {"measurement": "viscosity", "setting": "298.15 K, m1 = 0.1109", "value": "0.381 ± 0.0081", "unit": "mPa·s"}, {"measurement": "viscosity", "setting": "298.15 K, m1 = 0.1136", "value": "0.368 ± 0.0078", "unit": "mPa·s"}, {"measurement": "viscosity", "setting": "298.15 K, m1 = 0.1159", "value": "0.374 ± 0.0079", "unit": "mPa·s"}, {"measurement": "viscosity", "setting": "298.15 K, m1 = 0.1172", "value": "0.374 ± 0.0079", "unit": "mPa·s"}, {"measurement": "viscosity", "setting": "298.15 K, m1 = 0.1441", "value": "0.397 ± 0.0084", "unit": "mPa·s"}, {"measurement": "viscosity", "setting": "298.15 K, m1 = 0.1487", "value": "0.395 ± 0.0083", "unit": "mPa·s"}, {"measurement": "viscosity", "setting": "298.15 K, m1 = 0.1539", "value": "0.381 ± 0.0081", "unit": "mPa·s"}, {"measurement": "viscosity", "setting": "298.15 K, m1 = 0.1655", "value": "0.375 ± 0.0079", "unit": "mPa·s"}, {"measurement": "mass density", "setting": "298.15 K, m1 = 0.0397", "value": "778.8 ± 3.9", "unit": "kg/m3"}, {"measurement": "mass density", "setting": "298.15 K, m1 = 0.0412", "value": "778.98 ± 3.9 kg/m3 and 778.99 ± 3.9 kg/m3"}, {"measurement": "mass density", "setting": "298.15 K, m1 = 0.0707", "value": "781 ± 3.9", "unit": "kg/m3"}, {"measurement": "mass density", "setting": "298.15 K, m1 = 0.076", "value": "781.24 ± 3.9", "unit": "kg/m3"}, {"measurement": "mass density", "setting": "298.15 K, m1 = 0.0794", "value": "781.36 ± 3.9", "unit": "kg/m3"}, {"measurement": "mass density", "setting": "298.15 K, m1 = 0.085", "value": "781.2 ± 3.9", "unit": "kg/m3"}, {"measurement": "mass density", "setting": "298.15 K, m1 = 0.1109", "value": "783.49 ± 3.9", "unit": "kg/m3"}, {"measurement": "mass density", "setting": "298.15 K, m1 = 0.1136", "value": "783.49 ± 3.9", "unit": "kg/m3"}, {"measurement": "mass density", "setting": "298.15 K, m1 = 0.1159", "value": "783.49 ± 3.9", "unit": "kg/m3"}, {"measurement": "mass density", "setting": "298.15 K, m1 = 0.1172", "value": "783.63 ± 3.9", "unit": "kg/m3"}, {"measurement": "mass density", "setting": "298.15 K, m1 = 0.1441", "value": "785.8 ± 3.9", "unit": "kg/m3"}, {"measurement": "mass density", "setting": "298.15 K, m1 = 0.1487", "value": "786.71 ± 3.9", "unit": "kg/m3"}, {"measurement": "mass density", "setting": "298.15 K, m1 = 0.1539", "value": "785.86 ± 3.9", "unit": "kg/m3"}, {"measurement": "mass density", "setting": "298.15 K, m1 = 0.1655", "value": "785.87 ± 3.9", "unit": "kg/m3"}, {"measurement": "mass density", "setting": "298.15 K, m1 = 0.396", "value": "779.08 ± 3.9", "unit": "kg/m3"}, {"measurement": "mass density", "setting": "303.15 K, m1 = 0.0397", "value": "770.6 ± 3.9", "unit": "kg/m3"}, {"measurement": "mass density", "setting": "303.15 K, m1 = 0.0412", "value": "773.9 ± 3.9 kg/m3 and 773.55 ± 3.9 kg/m3"}, {"measurement": "mass density", "setting": "303.15 K, m1 = 0.0707", "value": "775.97 ± 3.9", "unit": "kg/m3"}, {"measurement": "mass density", "setting": "303.15 K, m1 = 0.076", "value": "772.52 ± 3.9", "unit": "kg/m3"}, {"measurement": "mass density", "setting": "303.15 K, m1 = 0.0794", "value": "775.79 ± 3.9", "unit": "kg/m3"}, {"measurement": "mass density", "setting": "303.15 K, m1 = 0.085", "value": "776.45 ± 3.9", "unit": "kg/m3"}, {"measurement": "mass density", "setting": "303.15 K, m1 = 0.1109", "value": "778.35 ± 3.9", "unit": "kg/m3"}, {"measurement": "mass density", "setting": "303.15 K, m1 = 0.1136", "value": "778.33 ± 3.9", "unit": "kg/m3"}, {"measurement": "mass density", "setting": "303.15 K, m1 = 0.1159", "value": "775.25 ± 3.9", "unit": "kg/m3"}, {"measurement": "mass density", "setting": "303.15 K, m1 = 0.1172", "value": "777.74 ± 3.9", "unit": "kg/m3"}, {"measurement": "mass density", "setting": "303.15 K, m1 = 0.1441", "value": "780.11 ± 3.9", "unit": "kg/m3"}, {"measurement": "mass density", "setting": "303.15 K, m1 = 0.1487", "value": "778.7 ± 3.9", "unit": "kg/m3"}, {"measurement": "mass density", "setting": "303.15 K, m1 = 0.1539", "value": "780.33 ± 3.9", "unit": "kg/m3"}, {"measurement": "mass density", "setting": "303.15 K, m1 = 0.1655", "value": "780.09 ± 3.9", "unit": "kg/m3"}, {"measurement": "mass density", "setting": "303.15 K, m1 = 0.396", "value": "773.62 ± 3.9", "unit": "kg/m3"}, {"measurement": "mass density", "setting": "308.15 K, m1 = 0.0397", "value": "762.7 ± 3.8", "unit": "kg/m3"}, {"measurement": "mass density", "setting": "308.15 K, m1 = 0.0412", "value": "765.55 ± 3.8 kg/m3 and 766.66 ± 3.8 kg/m3"}, {"measurement": "mass density", "setting": "308.15 K, m1 = 0.0707", "value": "767.82 ± 3.8", "unit": "kg/m3"}, {"measurement": "mass density", "setting": "308.15 K, m1 = 0.076", "value": "764.1 ± 3.8", "unit": "kg/m3"}, {"measurement": "mass density", "setting": "308.15 K, m1 = 0.0794", "value": "769.83 ± 3.9", "unit": "kg/m3"}, {"measurement": "mass density", "setting": "308.15 K, m1 = 0.085", "value": "769.8 ± 3.9", "unit": "kg/m3"}, {"measurement": "mass density", "setting": "308.15 K, m1 = 0.1109", "value": "771.54 ± 3.9", "unit": "kg/m3"}, {"measurement": "mass density", "setting": "308.15 K, m1 = 0.1136", "value": "771.48 ± 3.9", "unit": "kg/m3"}, {"measurement": "mass density", "setting": "308.15 K, m1 = 0.1159", "value": "767.32 ± 3.8", "unit": "kg/m3"}, {"measurement": "mass density", "setting": "308.15 K, m1 = 0.1172", "value": "772.75 ± 3.9", "unit": "kg/m3"}, {"measurement": "mass density", "setting": "308.15 K, m1 = 0.1441", "value": "774.3 ± 3.9", "unit": "kg/m3"}, {"measurement": "mass density", "setting": "308.15 K, m1 = 0.1487", "value": "769.46 ± 3.9", "unit": "kg/m3"}, {"measurement": "mass density", "setting": "308.15 K, m1 = 0.1539", "value": "775.54 ± 3.9", "unit": "kg/m3"}, {"measurement": "mass density", "setting": "308.15 K, m1 = 0.1655", "value": "774.28 ± 3.9", "unit": "kg/m3"}, {"measurement": "mass density", "setting": "308.15 K, m1 = 0.396", "value": "766.62 ± 3.8", "unit": "kg/m3"}, {"measurement": "mass density", "setting": "313.15 K, m1 = 0.0397", "value": "754.02 ± 3.8", "unit": "kg/m3"}, {"measurement": "mass density", "setting": "313.15 K, m1 = 0.0412", "value": "759.53 ± 3.8 kg/m3 and 758.9 ± 3.8 kg/m3"}, {"measurement": "mass density", "setting": "313.15 K, m1 = 0.0707", "value": "761.2 ± 3.8", "unit": "kg/m3"}, {"measurement": "mass density", "setting": "313.15 K, m1 = 0.076", "value": "756.48 ± 3.8", "unit": "kg/m3"}, {"measurement": "mass density", "setting": "313.15 K, m1 = 0.0794", "value": "761.42 ± 3.8", "unit": "kg/m3"}, {"measurement": "mass density", "setting": "313.15 K, m1 = 0.085", "value": "762.5 ± 3.8", "unit": "kg/m3"}, {"measurement": "mass density", "setting": "313.15 K, m1 = 0.1109", "value": "764.87 ± 3.8", "unit": "kg/m3"}, {"measurement": "mass density", "setting": "313.15 K, m1 = 0.1136", "value": "764.85 ± 3.8", "unit": "kg/m3"}, {"measurement": "mass density", "setting": "313.15 K, m1 = 0.1159", "value": "759.62 ± 3.8", "unit": "kg/m3"}, {"measurement": "mass density", "setting": "313.15 K, m1 = 0.1172", "value": "767.66 ± 3.8", "unit": "kg/m3"}, {"measurement": "mass density", "setting": "313.15 K, m1 = 0.1441", "value": "767.8 ± 3.8", "unit": "kg/m3"}, {"measurement": "mass density", "setting": "313.15 K, m1 = 0.1487", "value": "761.79 ± 3.8", "unit": "kg/m3"}, {"measurement": "mass density", "setting": "313.15 K, m1 = 0.1539", "value": "770.79 ± 3.9", "unit": "kg/m3"}, {"measurement": "mass density", "setting": "313.15 K, m1 = 0.1655", "value": "767.87 ± 3.8", "unit": "kg/m3"}, {"measurement": "mass density", "setting": "313.15 K, m1 = 0.396", "value": "760.23 ± 3.8", "unit": "kg/m3"}]}
